Activity calls are given as the source filed them. No cut-off for these calls is given here.
Tests used:
[1] = molecular target: T1, Cystine/glutamate transporter (Homo sapiens) (UniProt Q9UPY5); assay: Inhibition of XCT in CpG-A-activated human plasmacytoid dendritic cells at 25 to 100 uM assessed as decrease in TNF production in presence of 100 uM sulfasalazine; type: cell-based; conditions: Plasmacytoid dendritic cell, dose 25-100 µM
T1 sequence (whole entry): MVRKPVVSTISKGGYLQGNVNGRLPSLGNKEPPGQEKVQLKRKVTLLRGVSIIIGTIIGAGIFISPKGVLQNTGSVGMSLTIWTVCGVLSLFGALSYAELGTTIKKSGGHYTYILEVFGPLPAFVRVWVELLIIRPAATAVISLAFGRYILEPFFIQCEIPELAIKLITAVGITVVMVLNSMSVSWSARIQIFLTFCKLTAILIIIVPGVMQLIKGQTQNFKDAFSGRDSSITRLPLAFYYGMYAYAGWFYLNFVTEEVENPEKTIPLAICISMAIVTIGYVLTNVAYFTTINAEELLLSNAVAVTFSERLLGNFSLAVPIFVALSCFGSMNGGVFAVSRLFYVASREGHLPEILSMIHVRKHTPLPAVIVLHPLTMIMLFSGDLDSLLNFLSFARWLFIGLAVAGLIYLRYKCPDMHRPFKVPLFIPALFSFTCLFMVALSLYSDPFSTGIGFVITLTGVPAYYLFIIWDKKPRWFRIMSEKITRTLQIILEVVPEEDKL

[2] = molecular target: Large neutral amino acids transporter small subunit 1 (Homo sapiens) (UniProt Q01650); assay: Inhibition of human LAT1 at 100 uM relative to control
[3] = test system: Plasmacytoid dendritic cell; assay: Inhibition of SLC7A5/SLC3A2 in CpG-A-stimulated human plasmacytoid dendritic cells at 10 uM assessed as decrease in kynurenine transport; type: cell-based
mTORC1 (Homo sapiens) [4] = molecular target: T2, mTORC1 (Homo sapiens) (UniProt P42345+Q8N122+Q9BVC4); conditions: Plasmacytoid dendritic cell, dose 250.0 nM
Description: Inhibition of mTORC1 in CpG-A-stimulated human plasmacytoid dendritic cells at 250 nM assessed as decrease in lactate release

[5] = molecular target: Tyrosine-protein kinase JAK2 (Homo sapiens) (UniProt O60674); assay: Inhibition of JAK2 in TLR9-activated human plasmacytoid dendritic cells at 20 nM assessed as decrease in CpG-A stimulated SLC7A11 expression; type: cell-based; conditions: Plasmacytoid dendritic cell
[6] = molecular target: Tyrosine-protein kinase JAK2 (Homo sapiens) (UniProt O60674); assay: Inhibition of JAK2 in IL3- and CpG-A-activated human plasmacytoid dendritic cells at 20 nM assessed as decrease in MYO1E/IFNA2 expression; type: cell-based; conditions: Plasmacytoid dendritic cell
[7] = molecular target: Tyrosine-protein kinase JAK2 (Homo sapiens) (UniProt O60674); assay: Inhibition of JAK2 in IL3- and CpG-A-activated human plasmacytoid dendritic cells at 20 nM assessed as decrease in ENPP2/IFNA2 expression; type: cell-based; conditions: Plasmacytoid dendritic cell
mTORC1 (Homo sapiens) [8] = molecular target: T2, mTORC1 (Homo sapiens); conditions: Plasmacytoid dendritic cell, dose 20.0 nM
Description: Inhibition of mTORC1 in CpG-A-stimulated human plasmacytoid dendritic cells at 20 nM assessed as decrease in lactate release

[9] = molecular target: T1, Cystine/glutamate transporter (Homo sapiens); assay: Inhibition of XCT in IL-3 CpG-A-activated human plasma at 10 uM assessed as decrease in pDC activation
[10] = molecular target: T1, Cystine/glutamate transporter (Homo sapiens); assay: Inhibition of XCT in CpG-A-activated human plasmacytoid dendritic cells at 5 uM assessed as decrease in IFN-alpha production; type: cell-based; conditions: Plasmacytoid dendritic cell
[11] = molecular target: T1, Cystine/glutamate transporter (Homo sapiens); assay: Inhibition of XCT in CpG-A-activated human plasmacytoid dendritic cells at 10 uM assessed as decrease in ENPP2 expression; type: cell-based; conditions: Plasmacytoid dendritic cell
[12] = molecular target: T1, Cystine/glutamate transporter (Homo sapiens); assay: Inhibition of XCT in CpG-A-activated human plasmacytoid dendritic cells at 1 uM assessed as decrease in IFN-alpha production; type: cell-based; conditions: Plasmacytoid dendritic cell
[13] = molecular target: T1, Cystine/glutamate transporter (Homo sapiens); assay: Inhibition of XCT in CpG-A-activated human plasmacytoid dendritic cells at 5 uM assessed as decrease in TNF production; type: cell-based; conditions: Plasmacytoid dendritic cell
[14] = molecular target: T1, Cystine/glutamate transporter (Homo sapiens); assay: Inhibition of XCT in CpG-A-activated human plasmacytoid dendritic cells at 5 uM assessed as decrease in kynurenine uptake; type: cell-based; conditions: Plasmacytoid dendritic cell
[15] = molecular target: T1, Cystine/glutamate transporter (Homo sapiens); assay: Inhibition of XCT in CpG-A-activated human plasmacytoid dendritic cells at 1 uM assessed as decrease in TNF production; type: cell-based; conditions: Plasmacytoid dendritic cell
[16] = molecular target: T1, Cystine/glutamate transporter (Homo sapiens); assay: Inhibition of XCT in CpG-A-activated human plasmacytoid dendritic cells at 5 uM assessed as decrease in S6 phosphorylation; type: cell-based; conditions: Plasmacytoid dendritic cell
[17] = molecular target: T1, Cystine/glutamate transporter (Homo sapiens); assay: Inhibition of XCT in CpG-A-activated human plasmacytoid dendritic cells at 10 uM assessed as decrease in MYO1E expression; type: cell-based; conditions: Plasmacytoid dendritic cell
[18] = molecular target: T3, Signal transducer and activator of transcription 5A (Homo sapiens) (UniProt P42229); assay: Inhibition of STAT5 in IL-3 and CpG-A-stimulated human plasmacytoid dendritic cells at 10 to 50 nM assessed as decrease in TNF production in presence of 100 uM sulfasalazine; type: cell-based; conditions: Plasmacytoid dendritic cell, dose 10-50 nM
T3 sequence (whole entry): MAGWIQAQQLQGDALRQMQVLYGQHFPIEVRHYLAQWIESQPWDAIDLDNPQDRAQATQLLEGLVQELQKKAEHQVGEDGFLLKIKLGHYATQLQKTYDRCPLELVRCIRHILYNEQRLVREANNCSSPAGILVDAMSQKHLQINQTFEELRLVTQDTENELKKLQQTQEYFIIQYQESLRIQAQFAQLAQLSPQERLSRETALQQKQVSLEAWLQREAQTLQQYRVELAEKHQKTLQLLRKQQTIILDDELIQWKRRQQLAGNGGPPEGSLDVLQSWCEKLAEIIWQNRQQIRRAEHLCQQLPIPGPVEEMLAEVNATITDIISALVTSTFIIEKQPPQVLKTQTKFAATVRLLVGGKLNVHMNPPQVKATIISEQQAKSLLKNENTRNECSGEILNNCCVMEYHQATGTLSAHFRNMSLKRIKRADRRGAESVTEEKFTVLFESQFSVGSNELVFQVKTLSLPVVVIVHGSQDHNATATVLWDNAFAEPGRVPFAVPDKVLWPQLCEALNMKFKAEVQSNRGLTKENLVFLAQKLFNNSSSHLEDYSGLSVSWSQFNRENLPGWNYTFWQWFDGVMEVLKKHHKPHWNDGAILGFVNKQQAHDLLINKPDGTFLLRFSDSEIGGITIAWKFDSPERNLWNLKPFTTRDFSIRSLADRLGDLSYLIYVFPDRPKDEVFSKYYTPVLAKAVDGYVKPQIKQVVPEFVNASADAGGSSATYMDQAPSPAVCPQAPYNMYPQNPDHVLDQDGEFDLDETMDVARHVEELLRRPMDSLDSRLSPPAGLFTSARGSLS

[19] = molecular target: T3, Signal transducer and activator of transcription 5A (Homo sapiens); assay: Inhibition of STAT5 in IL-3 and CpG-A-stimulated human plasmacytoid dendritic cells at 10 to 50 nM assessed as decrease in IFN-alpha production in presence of 100 uM sulfasalazine; type: cell-based; conditions: Plasmacytoid dendritic cell, dose 10-50 nM

Large neutral amino acids transporter small subunit 1 (Homo sapiens), sequence (Q01650 whole entry): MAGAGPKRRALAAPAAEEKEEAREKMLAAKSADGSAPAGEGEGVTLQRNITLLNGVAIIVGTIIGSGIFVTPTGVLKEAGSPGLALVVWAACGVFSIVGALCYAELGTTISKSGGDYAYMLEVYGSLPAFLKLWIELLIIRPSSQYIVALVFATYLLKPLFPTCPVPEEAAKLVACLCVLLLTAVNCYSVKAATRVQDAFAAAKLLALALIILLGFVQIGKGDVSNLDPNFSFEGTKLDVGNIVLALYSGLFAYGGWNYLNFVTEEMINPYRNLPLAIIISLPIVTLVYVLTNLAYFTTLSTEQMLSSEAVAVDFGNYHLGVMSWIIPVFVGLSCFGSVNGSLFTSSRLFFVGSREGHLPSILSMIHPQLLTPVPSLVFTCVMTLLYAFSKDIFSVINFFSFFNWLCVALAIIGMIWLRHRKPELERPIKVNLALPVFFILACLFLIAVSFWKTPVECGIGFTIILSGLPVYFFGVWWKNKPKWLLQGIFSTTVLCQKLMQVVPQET
Tyrosine-protein kinase JAK2 (Homo sapiens), sequence (O60674 whole entry): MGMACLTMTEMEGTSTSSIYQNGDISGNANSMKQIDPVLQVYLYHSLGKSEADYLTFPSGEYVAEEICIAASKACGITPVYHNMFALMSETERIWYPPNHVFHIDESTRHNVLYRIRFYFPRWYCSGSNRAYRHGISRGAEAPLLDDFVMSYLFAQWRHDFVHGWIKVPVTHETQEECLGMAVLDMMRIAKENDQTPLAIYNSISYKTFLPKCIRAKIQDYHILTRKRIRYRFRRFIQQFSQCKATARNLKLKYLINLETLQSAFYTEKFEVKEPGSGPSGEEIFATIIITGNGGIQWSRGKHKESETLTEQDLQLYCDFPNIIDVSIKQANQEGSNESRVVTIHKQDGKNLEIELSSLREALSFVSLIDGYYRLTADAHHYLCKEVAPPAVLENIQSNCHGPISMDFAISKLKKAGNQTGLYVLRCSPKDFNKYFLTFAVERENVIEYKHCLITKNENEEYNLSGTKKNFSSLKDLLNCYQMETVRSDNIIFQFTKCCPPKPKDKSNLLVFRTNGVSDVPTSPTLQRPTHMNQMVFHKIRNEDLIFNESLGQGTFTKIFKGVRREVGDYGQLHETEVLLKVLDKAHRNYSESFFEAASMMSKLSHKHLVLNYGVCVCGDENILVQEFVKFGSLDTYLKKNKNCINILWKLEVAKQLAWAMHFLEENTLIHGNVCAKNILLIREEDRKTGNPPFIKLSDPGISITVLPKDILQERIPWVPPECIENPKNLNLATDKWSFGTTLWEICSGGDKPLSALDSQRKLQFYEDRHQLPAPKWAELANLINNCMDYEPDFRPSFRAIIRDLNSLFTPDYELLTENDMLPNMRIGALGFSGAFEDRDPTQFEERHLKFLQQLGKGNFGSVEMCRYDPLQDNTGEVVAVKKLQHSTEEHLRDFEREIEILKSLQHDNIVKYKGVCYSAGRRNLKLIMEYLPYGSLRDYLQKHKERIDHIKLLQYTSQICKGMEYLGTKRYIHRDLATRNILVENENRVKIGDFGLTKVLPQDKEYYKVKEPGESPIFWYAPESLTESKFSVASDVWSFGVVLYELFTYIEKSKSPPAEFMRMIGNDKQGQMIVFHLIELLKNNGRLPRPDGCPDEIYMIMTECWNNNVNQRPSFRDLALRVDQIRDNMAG
T2 sequence (Q8N122 whole entry, looked up, other chains not shown): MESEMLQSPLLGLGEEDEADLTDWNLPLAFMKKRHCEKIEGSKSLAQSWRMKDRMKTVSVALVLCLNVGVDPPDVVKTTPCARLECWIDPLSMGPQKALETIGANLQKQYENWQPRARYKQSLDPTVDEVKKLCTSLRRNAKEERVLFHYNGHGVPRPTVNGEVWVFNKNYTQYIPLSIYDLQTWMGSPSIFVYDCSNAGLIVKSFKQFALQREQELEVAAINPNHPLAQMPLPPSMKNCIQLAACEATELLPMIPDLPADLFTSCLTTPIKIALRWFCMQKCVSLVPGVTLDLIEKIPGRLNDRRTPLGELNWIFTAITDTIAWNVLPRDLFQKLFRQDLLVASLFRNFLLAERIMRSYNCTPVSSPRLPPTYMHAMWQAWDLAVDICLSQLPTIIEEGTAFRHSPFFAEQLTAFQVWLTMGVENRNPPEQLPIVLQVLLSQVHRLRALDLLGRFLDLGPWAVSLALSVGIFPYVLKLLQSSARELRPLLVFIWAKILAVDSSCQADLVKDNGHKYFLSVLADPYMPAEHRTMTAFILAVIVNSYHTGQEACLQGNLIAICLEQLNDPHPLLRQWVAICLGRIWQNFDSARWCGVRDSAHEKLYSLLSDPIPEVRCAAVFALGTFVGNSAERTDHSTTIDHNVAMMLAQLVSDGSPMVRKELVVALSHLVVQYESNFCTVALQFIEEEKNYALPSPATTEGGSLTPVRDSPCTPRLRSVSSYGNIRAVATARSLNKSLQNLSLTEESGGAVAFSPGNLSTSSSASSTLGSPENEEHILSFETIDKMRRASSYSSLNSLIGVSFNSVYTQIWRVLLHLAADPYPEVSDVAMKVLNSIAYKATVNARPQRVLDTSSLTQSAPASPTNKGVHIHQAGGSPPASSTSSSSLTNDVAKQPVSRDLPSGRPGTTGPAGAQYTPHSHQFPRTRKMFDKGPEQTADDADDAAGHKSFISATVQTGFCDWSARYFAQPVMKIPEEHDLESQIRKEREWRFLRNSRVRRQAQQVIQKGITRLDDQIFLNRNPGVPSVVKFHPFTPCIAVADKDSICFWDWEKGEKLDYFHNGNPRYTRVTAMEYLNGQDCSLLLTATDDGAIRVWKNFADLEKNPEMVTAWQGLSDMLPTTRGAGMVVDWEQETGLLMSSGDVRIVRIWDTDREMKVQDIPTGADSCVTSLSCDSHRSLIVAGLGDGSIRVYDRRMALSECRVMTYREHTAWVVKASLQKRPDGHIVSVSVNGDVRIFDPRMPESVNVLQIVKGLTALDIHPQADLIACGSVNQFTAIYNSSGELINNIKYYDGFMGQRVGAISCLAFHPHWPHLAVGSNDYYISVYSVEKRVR
T2 sequence (Q9BVC4 whole entry, looked up, other chains not shown): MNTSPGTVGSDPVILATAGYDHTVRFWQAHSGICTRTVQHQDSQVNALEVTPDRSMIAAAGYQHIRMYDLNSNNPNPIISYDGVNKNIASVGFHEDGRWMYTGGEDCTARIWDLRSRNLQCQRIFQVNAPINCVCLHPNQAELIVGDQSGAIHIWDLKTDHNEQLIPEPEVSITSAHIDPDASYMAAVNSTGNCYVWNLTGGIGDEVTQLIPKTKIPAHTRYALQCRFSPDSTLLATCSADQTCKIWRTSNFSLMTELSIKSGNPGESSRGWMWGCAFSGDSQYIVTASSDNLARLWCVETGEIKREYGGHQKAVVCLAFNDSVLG

SMILES: CCS(=O)(=O)N1CC(CC#N)(n2cc(-c3ncnc4[nH]ccc34)cn2)C1
- inhibition [1]: Active

SMILES: Fc1ccc(Cl)cc1/N=c1\ssnc1Cl
- inhibition [2]: > 90%

SMILES: NC1(C(=O)O)CC2CCC1C2 (configuration not stated)
- inhibition [3]: Active

SMILES: CO[C@H]1CC2CC[C@@H](C)[C@@](O)(O2)C(=O)C(=O)N2CCCC[C@H]2C(=O)O[C@H]([C@H](C)C[C@@H]2CC[C@@H](O)[C@H](OC)C2)CC(=O)[C@H](C)/C=C(\C)[C@@H](O)[C@@H](OC)C(=O)[C@H](C)C[C@H](C)/C=C/C=C/C=C/1C
- inhibition (mTORC1 (Homo sapiens) [4]): Active
- inhibition [5]: Active
- inhibition [6]: Active
- inhibition [7]: Active
- inhibition (mTORC1 (Homo sapiens) [8]): Active

SMILES: N#Cc1cc(Br)ccc1/N=c1\ssnc1Cl
- inhibition [2]: > 90%

SMILES: N#Cc1ccc(Cl)cc1/N=c1\ssnc1Cl
- inhibition [2]: > 90%

SMILES: CCOc1ccccc1-n1c(C(C)N2CCN(C(=O)COc3ccc(Cl)cc3)CC2)nc2ccccc2c1=O (configuration not stated)
- inhibition [9]: Active
- inhibition [10]: Active
- inhibition [11]: Active
- inhibition [12]: Active
- inhibition [13]: Active
- inhibition [14]: Active
- inhibition [15]: Active
- inhibition [16]: Active
- inhibition [17]: Active

SMILES: FC(F)(F)Oc1ccc(/N=c2\ssnc2Cl)cc1
- inhibition [2]: > 90%

SMILES: CN(C)CCNc1nc2ccccc2c2[nH]c3ccccc3c12
- inhibition [18]: Active
- inhibition [19]: Active

— ChEMBL document CHEMBL5393457, “Combined inhibition of amino acid transporters for inhibiting human plasmacytoid dendritic cell activity during autoimmunity” (2022)
